# Like-named read-outs stand apart in the source and are kept apart here.
# What was measured:
# [1] = target: potassium channel human Ether-a-go-go Related Gene (hERG) (Homo sapiens, UniProt Q12809); assay: hERG channel inhibition; type: cell-based
# Source text: We next used in vitro assays to test absorption, distribution, metabolism, excretion and toxicity (ADMET) parameters for selected compounds. We assessed compound absorption using parallel artificial membrane permeability (PAMPA) and Caco-2 cell permeability assays (cut-off criterion >2 × 10^−6 cm s^−1). […] To assess potential off-target activity of our compounds that could be relevant for safety in humans, we conducted comprehensive in vitro pharmacology using the commercially available and widely used SafetyScreen44 interaction panel[60] covering eight protein families.
# CYP2D6 = target: T1, CYP2D6 (Homo sapiens, UniProt P10635); assay: CYP inhibition assay 2D6; type: in vitro ADME
# T1 construct: purchased BD Gentest
# Protocol: (§1) The half-maximal inhibitory concentration (IC50) for cytochrome P450 (CYP) enzymes was determined using an in vitro enzyme inhibition assay. Recombinant CYP enzymes or human liver microsomes from BD Gentest, in 0.1 M phosphate buffer pH 7.4, containing native CYP enzymes were incubated with the test compound at various concentrations (1, 3, 10 and 30 μM) and containing 0.5% DMSO and 0.1% BSA final concentrations. 1 mM of NADPH cofactor was added and the reaction was started by a rapid increase of temperature until 37°C.
# [2] = Microsome clearance (human); type: in vitro ADME; conditions: human liver microsomes, 45 min, NADPH, read-out: Microsomes (h) clearance (converted)
# Protocol: (§2) Human or mouse liver microsomes were incubated with the test compound at a concentration of 1 μM for 45 min in the presence of cofactor (NADPH in excess). Samples were collected at various time points, and % remaining of test compound was determined using mass spectrometry (LC-MS/MS) to calculate hepatic clearance rate (L/h/kg).
# [3] = Microsome clearance (mouse); type: in vitro ADME; conditions: mouse liver microsomes, 45 min, NADPH
# Protocol: as §2
# human TRPM5 = target: T2, human TRPM5 (Homo sapiens, UniProt Q9NZQ8); assay: QPatch automated patch clamp on TRPM5-expressing HEK293 cells; type: cell-based; conditions: hsTRPM5-expressing HEK293 cells
# T2 sequence (Q9NZQ8 1-1165): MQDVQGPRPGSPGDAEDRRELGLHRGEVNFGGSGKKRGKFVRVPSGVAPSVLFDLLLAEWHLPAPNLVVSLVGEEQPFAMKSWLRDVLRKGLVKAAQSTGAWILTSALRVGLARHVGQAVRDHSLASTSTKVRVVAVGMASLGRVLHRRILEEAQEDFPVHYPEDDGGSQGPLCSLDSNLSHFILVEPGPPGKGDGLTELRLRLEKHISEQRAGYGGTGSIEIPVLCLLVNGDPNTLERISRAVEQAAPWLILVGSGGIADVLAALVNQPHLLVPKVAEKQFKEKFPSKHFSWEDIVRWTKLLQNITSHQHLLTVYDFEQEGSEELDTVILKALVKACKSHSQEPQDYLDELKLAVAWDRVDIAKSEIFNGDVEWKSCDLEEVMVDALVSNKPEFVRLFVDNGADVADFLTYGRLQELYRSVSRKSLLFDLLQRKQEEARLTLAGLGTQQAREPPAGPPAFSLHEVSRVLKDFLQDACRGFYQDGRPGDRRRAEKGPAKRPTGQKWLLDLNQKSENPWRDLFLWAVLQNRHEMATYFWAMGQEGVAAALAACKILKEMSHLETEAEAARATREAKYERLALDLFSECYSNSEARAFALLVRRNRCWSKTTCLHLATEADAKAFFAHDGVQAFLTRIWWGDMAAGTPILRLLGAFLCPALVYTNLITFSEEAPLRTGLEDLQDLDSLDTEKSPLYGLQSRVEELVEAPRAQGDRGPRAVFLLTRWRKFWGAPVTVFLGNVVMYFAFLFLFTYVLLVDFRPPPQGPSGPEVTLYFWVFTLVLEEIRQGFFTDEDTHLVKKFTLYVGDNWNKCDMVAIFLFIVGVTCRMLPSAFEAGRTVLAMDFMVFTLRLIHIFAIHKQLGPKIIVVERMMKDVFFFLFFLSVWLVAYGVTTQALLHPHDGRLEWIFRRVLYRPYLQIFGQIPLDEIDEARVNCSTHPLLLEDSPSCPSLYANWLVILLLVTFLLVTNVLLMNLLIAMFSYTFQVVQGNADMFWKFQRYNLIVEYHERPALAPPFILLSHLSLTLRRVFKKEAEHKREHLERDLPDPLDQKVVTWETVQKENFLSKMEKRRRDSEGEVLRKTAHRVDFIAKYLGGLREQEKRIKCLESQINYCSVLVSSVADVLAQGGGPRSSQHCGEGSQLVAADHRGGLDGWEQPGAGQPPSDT
# Source text: The counter screening phase involved the inclusion of hsTRPM5-expressing HEK293 cells, as closest homologue, and the parental HEK293 cell line to evaluate selectivity. […] Based on categorization of biological activity, mass spectrometry quality control, and aspects of medicinal chemistry, we prioritized 144 selective hsTRPM4 compounds. These compounds were then subjected to automated patch clamp electrophysiology measurements (QPatch[58]) to evaluate their activity profiles and IC50 values (Figures 1A, S1, and S2).
# QPatchHTX, an automated electrophysiology platform, was used in single hole mode. One day before use human TRPM4- or TRPM5-expressing HEK293 cells were seeded in a T75 flask at a density of 53k cells per cm^2 and at passages < 23. For QPatch assays, cells were harvested and re-suspended in SFM (Gibco, 11686029). The extracellular solution was (in mM): CaCl2 (7), MgCl2 (2), KCl (5), HEPES (10), NaCl (70), NMDG (70); pH 7.4 with NaOH. The intracellular solution was (in mM): HEPES (10), NMDG (100), NaCl (50), EGTA (20), MgCl2 (1), CaCl2 (21); pH 7.2 with HCl. After break-in, channels were consistently open and current through the channels could be observed at a voltage ramp from –100 mV to +100 mV over 500 ms. This protocol was repeated every 7 seconds. After saline and vehicle application, the channel was desensitized and residual current was used as baseline. FFA was used as reference compound and applied cumulatively with each concentration incubating at a minimum of 20 voltage protocol runs (140 seconds) with the current after addition of FFA being calculated as full block. […] Each compound was measured at least 3 time independently.
# CYP3A4 = target: T3, CYP3A4 (Homo sapiens, UniProt P08684); assay: CYP inhibition assay 3A4; type: in vitro ADME
# T3 construct: purchased BD Gentest
# Protocol: as §1
# Hepatocyte clearance = type: in vitro ADME; conditions: cryopreserved hepatocytes, 120 min, read-out: Hep. clearance (converted)
# Protocol: Cryopreserved hepatocytes were exposed to test Compounds at a concentration of 1 μM for 120 minutes. Samples were collected at various time points, and percent remaining of test compound was determined using mass spectrometry (LC-MS/MS) to calculate hepatic clearance rate (L/h/kg).
# [4] = TDI, read-out: Cyp IC50 TDI 3A4
# T1 sequence (P10635 whole entry): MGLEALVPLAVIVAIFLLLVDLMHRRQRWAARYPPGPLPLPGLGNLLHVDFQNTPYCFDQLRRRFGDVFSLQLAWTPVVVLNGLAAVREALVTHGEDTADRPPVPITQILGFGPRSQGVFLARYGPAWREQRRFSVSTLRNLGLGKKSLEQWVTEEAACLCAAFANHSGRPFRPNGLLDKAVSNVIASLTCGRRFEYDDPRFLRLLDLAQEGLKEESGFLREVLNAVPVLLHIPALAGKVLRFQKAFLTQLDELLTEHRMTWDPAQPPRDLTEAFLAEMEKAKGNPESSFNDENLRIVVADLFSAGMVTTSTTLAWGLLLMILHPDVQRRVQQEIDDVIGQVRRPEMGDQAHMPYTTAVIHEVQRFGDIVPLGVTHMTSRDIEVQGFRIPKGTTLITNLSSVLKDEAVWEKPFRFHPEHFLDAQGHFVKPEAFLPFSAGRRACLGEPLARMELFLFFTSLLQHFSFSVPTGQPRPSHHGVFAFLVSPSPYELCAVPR
# T3 sequence (P08684 whole entry): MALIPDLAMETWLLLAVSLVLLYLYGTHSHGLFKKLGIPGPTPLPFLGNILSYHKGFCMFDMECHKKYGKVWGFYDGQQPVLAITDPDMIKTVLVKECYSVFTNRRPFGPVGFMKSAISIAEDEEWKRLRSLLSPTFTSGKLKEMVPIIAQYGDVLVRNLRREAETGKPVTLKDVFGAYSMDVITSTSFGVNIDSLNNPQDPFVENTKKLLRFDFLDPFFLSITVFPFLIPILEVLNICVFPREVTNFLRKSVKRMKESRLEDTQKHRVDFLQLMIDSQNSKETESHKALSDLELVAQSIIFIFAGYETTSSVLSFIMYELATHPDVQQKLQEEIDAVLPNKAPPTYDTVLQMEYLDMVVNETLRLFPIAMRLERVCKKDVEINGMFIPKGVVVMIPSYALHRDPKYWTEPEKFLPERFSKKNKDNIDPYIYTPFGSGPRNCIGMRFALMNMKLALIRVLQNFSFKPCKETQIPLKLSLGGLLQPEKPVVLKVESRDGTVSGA
# potassium channel human Ether-a-go-go Related Gene (hERG), sequence (Q12809 whole entry): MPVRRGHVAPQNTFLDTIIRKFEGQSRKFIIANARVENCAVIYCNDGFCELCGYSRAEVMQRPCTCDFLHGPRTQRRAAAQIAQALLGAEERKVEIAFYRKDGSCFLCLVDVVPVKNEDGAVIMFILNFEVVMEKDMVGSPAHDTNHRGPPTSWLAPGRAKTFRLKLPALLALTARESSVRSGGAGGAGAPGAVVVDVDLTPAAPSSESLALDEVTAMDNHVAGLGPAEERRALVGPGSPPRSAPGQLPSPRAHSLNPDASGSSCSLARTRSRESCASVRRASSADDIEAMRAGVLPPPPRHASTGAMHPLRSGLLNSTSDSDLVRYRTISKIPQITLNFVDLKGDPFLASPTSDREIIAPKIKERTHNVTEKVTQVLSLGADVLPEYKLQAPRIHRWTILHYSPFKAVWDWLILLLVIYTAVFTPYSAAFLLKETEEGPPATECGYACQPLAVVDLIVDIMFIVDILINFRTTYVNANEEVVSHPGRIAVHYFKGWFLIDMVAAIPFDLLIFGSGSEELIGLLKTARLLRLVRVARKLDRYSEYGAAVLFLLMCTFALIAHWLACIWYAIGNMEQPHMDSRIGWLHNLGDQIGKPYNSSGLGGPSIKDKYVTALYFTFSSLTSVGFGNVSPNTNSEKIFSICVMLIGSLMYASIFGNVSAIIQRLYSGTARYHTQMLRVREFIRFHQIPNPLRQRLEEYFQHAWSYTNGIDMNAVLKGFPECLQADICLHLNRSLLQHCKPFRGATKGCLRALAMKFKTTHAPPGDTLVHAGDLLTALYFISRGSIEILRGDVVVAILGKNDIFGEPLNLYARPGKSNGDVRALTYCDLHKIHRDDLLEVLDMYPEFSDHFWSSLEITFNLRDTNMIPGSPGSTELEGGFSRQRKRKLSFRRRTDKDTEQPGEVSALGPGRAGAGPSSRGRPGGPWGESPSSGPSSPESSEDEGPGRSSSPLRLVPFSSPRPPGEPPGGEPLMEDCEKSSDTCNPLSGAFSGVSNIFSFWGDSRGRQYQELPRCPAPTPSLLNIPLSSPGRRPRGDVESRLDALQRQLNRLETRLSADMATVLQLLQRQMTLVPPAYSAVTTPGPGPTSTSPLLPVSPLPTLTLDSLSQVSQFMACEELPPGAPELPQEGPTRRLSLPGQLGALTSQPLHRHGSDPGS
CLint scaled at 1 μM [2],CLint scaled at 1 μM [3],IC50 (human TRPM5),"IC50 (CYP2D6; human, pH 7.4)","IC50 (CYP3A4; human, pH 7.4)",SMILES,IC50 [1],IC50 (CYP2D6),IC50 (CYP3A4; [4]),IC50 (CYP3A4; read-out: Cyp IC50 3A4),CLint scaled at 1 μM (Hepatocyte clearance)
33.5 L/h/kg,> 54 L/h/kg,> 10 µM,,,c1csc(-c2ccccc2NCc2nc3ccccc3o2)c1 [CMP355],> 10 µM,> 50 µM,> 50 µM,> 50 µM,17.6 L/h/kg
36 L/h/kg,> 54 L/h/kg,> 10 µM,> 50 µM,> 50 µM,Cc1ccsc1-c1ccccc1NCc1nc2ccccc2o1 [CMP369],> 10 µM,,,,20.8 L/h/kg
14.6 L/h/kg,54 L/h/kg,> 30 µM,,,Nc1ccccc1-c1ccccc1NCc1nc2ccccc2o1 [CMP457],,> 50 µM,,,

SMILES,CLint scaled at 1 μM [2],CLint scaled at 1 μM [3],IC50 (human TRPM5),"IC50 (CYP2D6; human, pH 7.4)","IC50 (CYP3A4; human, pH 7.4)",IC50 [1],IC50 (CYP2D6),IC50 (CYP3A4; [4]),IC50 (CYP3A4; read-out: Cyp IC50 3A4),CLint scaled at 1 μM (Hepatocyte clearance)
Fc1cccc(-c2ccccc2NCc2nc3ccccc3o2)c1 [CMP343],34.2 L/h/kg,> 54 L/h/kg,> 10 µM,,,> 30 µM,> 50 µM,> 50 µM,> 50 µM,19.3 L/h/kg
Fc1ccccc1-c1ccccc1NCc1nc2ccccc2o1 [CMP353],36.3 L/h/kg,> 54 L/h/kg,> 10 µM,,,> 10 µM,> 50 µM,,> 29.6 µM,33.7 L/h/kg

# Reference: publication PMC11648915, “Identification and development of TRPM4 antagonists to counteract neuronal excitotoxicity” (iScience, 2024)
